Results as given in paper PMC11359809, “Probing the molecular basis for signal transduction through the Zinc-Activated Channel (ZAC)” (Biochemical pharmacology, 2021).

Experiments:
Format in all cases: cell-based
ZAC^H144A = molecular target: T1, ZAC^H144A (Homo sapiens, UniProt Q401N2, A152T/H168A); experiment: TEVC in oocytes, ZAC H144A mutant
T1 construct: expressed in transfected cells; host or cells: Xenopus oocytes injected with cRNA (pUNIV vector)
Procedure: (§1) The recordings were performed at room temperature.
(§2) Analysis of the data from the TEVC recordings were performed using Clampfit software version 10.5 (Molecular Devices, Crawley, UK) and GraphPad Prism version 7.0c (GraphPad Software, La Jolla, CA). Unless otherwise stated, the inward currents induced by agonists in oocytes were normalized to the maximal response elicited by a specific agonist (agonist Imax) on each oocyte. Concentration-response and concentration-inhibition curves were fitted in GraphPad Prism by nonlinear regression using the equation for sigmoidal dose-response with variable slope. Each data point represents the mean ± S.E.M. value of recordings performed on at least five oocytes in total from at least two different batches. […] The null hypothesis was rejected at P < 0.05, and the differences between the means were analyzed by Tukey’s multiple comparisons test.
(§3) The putative involvement of candidate residues in Clusters 1, 2, 3 and 4 in Zn^2+ binding to ZAC was investigated in by an elaborate alanine mutagenesis scanning. […] The determined IpH 4.0 value was used in part as a control and in part to enable the distinction of ZAC mutants non-responsive to Zn^2+ due to elimination of their ability to bind the metal ion from those where the mutation had eliminated cell surface expression and/or disrupted overall functionality of the receptor complex. […]

m5-HT3A/ZAC = molecular target: T2, m5-HT3A/ZAC (Mus musculus / Homo sapiens, UniProt P23979); experiment: TEVC in oocytes expressing m5-HT3A/ZAC chimera
T2 sequence (P23979 24-246): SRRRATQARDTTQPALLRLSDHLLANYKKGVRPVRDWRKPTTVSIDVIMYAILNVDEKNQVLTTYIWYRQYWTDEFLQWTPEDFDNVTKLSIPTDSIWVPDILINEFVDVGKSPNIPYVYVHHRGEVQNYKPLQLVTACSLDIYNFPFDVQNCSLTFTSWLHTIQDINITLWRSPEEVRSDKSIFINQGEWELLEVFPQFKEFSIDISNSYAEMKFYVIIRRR
T2 sequence (Q401N2 231-412 partner): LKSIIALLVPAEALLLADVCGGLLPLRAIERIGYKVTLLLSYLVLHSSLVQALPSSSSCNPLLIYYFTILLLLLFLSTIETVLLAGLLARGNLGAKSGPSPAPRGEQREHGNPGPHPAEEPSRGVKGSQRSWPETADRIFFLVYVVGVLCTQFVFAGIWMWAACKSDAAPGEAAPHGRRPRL
From the text: The construction of the ZAC-pUNIV plasmid (encoding for the human WT ZAC that contains a Thr in position 128) has been described previously. The m5-HT3A and hα1 GlyR cDNAs were subcloned from their original vectors into pUNIV (Addgene, Watertown, MA) using NheI and EcoRI as restriction enzymes. […] The C-terminus modifications in these four chimeras were introduced in their cDNAs in the same way. Point mutations were introduced in cDNAs by use of the QuikChange mutagenesis kit (Stratagene, San Diego, CA). The validity and absence of unwanted mutations in the constructed cDNAs was verified by DNA sequencing (Macrogen Europe, Amsterdam, The Netherlands).
All cDNAs used for cRNA synthesis were inserted in the pUNIV vector. The cDNAs were linearized and subsequently transcribed and capped using the mMessage mMachine T7 RNA transcription kit (Ambion, Waltham, MA). […] Oocytes were incubated in a sterile modified Barth’s solution [88 mM NaCl, 1 mM KCl, 15 mM HEPES (pH 7.5), 2.4 mM NaHCO3, 0.41 mM CaCl2, 0.82 mM MgSO4, 0.3 mM Ca(NO3)2, 100 U/ml penicillin and 100 μg/ml streptomycin] at 16–18 °C. Based on experience gained with WT ZAC in a recent study, all TEVC recordings were performed two days after cRNA injection.
On the day of the TEVC recording, all compound dilutions were prepared in a saline solution [115 mM NaCl, 2.5 mM KCl, 10 mM MOPS (pH 7.5), 1.8 mM CaCl2, 0.1 mM MgCl2], and pH was adjusted to 7.5 (if needed). Oocytes were placed in a recording chamber continuously perfused with this saline solution, and the compounds were applied in the perfusate. Both voltage and current electrodes were agar-plugged with 3 M KCl with a resistance of 0.2–2.0 MΩ. Oocytes were voltage-clamped at −50 mV (except in the studies of the chimeras and their parent receptors where they were clamped at −60 mV, section 3.1), by a Gene Clamp 500B amplifier, and current signals were digitized by a Digidata 1322A (both from Axon Instruments, Union City, CA). Currents were recorded using pCLAMP 10 (Molecular Devices, Sunnyvale, CA). The recordings were performed at room temperature.
In all recordings, compounds or compound combinations were applied in the bath until the peak current decayed to a steady state (up to 30 s). […] The antagonist properties of compounds were determined by pre-application of the compound to the perfusate for 30 s followed by co-application of the compound and the agonist. In all recordings, washes of 1–5 min were executed between the ligand applications, the length of the washes depending on the agonist concentrations used and on the return to baseline current amplitude.
Analysis of the data from the TEVC recordings were performed using Clampfit software version 10.5 (Molecular Devices, Crawley, UK) and GraphPad Prism version 7.0c (GraphPad Software, La Jolla, CA). Unless otherwise stated, the inward currents induced by agonists in oocytes were normalized to the maximal response elicited by a specific agonist (agonist Imax) on each oocyte. Concentration-response and concentration-inhibition curves were fitted in GraphPad Prism by nonlinear regression using the equation for sigmoidal dose-response with variable slope. Each data point represents the mean ± S.E.M. value of recordings performed on at least five oocytes in total from at least two different batches. For the data where statistical analysis was performed, a one-way ANOVA was used. The null hypothesis was rejected at P < 0.05, and the differences between the means were analyzed by Tukey’s multiple comparisons test.

ZAC^E89A/D105A = molecular target: T3, ZAC^E89A/D105A (Homo sapiens, UniProt Q401N2, A152T/D129A/E113A); experiment: TEVC in oocytes, ZAC E89A/D105A mutant
T3 construct: expressed in transfected cells; host or cells: Xenopus oocytes injected with cRNA (pUNIV vector)
T3 sequence (Q401N2 26-412 E113A/D129A/A152T): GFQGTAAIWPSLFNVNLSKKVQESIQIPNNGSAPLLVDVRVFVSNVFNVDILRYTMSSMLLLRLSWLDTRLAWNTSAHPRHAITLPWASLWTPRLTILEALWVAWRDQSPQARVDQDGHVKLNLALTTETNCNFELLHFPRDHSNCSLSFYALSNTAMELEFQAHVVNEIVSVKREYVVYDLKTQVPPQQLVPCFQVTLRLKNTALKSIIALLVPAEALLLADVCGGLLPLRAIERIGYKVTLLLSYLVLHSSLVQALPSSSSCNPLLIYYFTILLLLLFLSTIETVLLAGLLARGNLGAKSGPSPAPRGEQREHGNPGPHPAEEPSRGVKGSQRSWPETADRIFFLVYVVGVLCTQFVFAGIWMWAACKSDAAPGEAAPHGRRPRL
Procedure: as §1, §2, §3

ZAC^H82A = molecular target: T4, ZAC^H82A (Homo sapiens, UniProt Q401N2, A152T/H106A); experiment: TEVC in oocytes, ZAC H82A mutant
T4 construct: expressed in transfected cells; host or cells: Xenopus oocytes injected with cRNA (pUNIV vector)
T4 sequence (Q401N2 26-412 H106A/A152T): as the sequence (Q401N2 26-412 E113A/D129A/A152T) above, with H81A, A88E, A104D counted along it
Procedure: as §1, §2, §3

ZAC^D116A/DH8A/H210A = molecular target: T5, ZAC^D116A/DH8A/H210A (Homo sapiens, UniProt Q401N2, A152T/D140A/D142A/H144A); experiment: TEVC in oocytes, Cluster 1 triple mutant; details: 10 mM Zn^2+
T5 construct: expressed in transfected cells; host or cells: Xenopus oocytes injected with cRNA (pUNIV vector)
T5 sequence (Q401N2 26-412 D140A/D142A/H144A/A152T): as the sequence (Q401N2 26-412 E113A/D129A/A152T) above, with A88E, A104D, D115A, D117A, H119A counted along it
Procedure: as §1, §2, §3

ZAC^D108A = molecular target: T6, ZAC^D108A (Homo sapiens, UniProt Q401N2, A152T/D132A); experiment: TEVC in oocytes, ZAC D108A mutant
T6 construct: expressed in transfected cells; host or cells: Xenopus oocytes (cRNA injection, pUNIV vector)
T6 sequence (Q401N2 26-412 D132A/A152T): as the sequence (Q401N2 26-412 E113A/D129A/A152T) above, with A88E, A104D, D107A counted along it
Procedure: as §1, §2, §3

ZAC^H139A = molecular target: T7, ZAC^H139A (Homo sapiens, UniProt Q401N2, A152T/H163A); experiment: TEVC in oocytes, ZAC H139A mutant
T7 construct: expressed in transfected cells; host or cells: Xenopus oocytes injected with cRNA (pUNIV vector)
T7 sequence (Q401N2 26-412 A152T/H163A): as the sequence (Q401N2 26-412 E113A/D129A/A152T) above, with A88E, A104D, H138A counted along it
Procedure: as §1, §2, §3

ZAC^E130A = molecular target: T8, ZAC^E130A (Homo sapiens, UniProt Q401N2, A152T/E154A); experiment: TEVC in oocytes, ZAC E130A mutant
T8 construct: expressed in transfected cells; host or cells: Xenopus oocytes (cRNA injection, pUNIV vector)
T8 sequence (Q401N2 26-412 A152T/E154A): as the sequence (Q401N2 26-412 E113A/D129A/A152T) above, with A88E, A104D, E129A counted along it
Procedure: as §1, §2, §3

[1] = molecular target: T9, ZAC^E24A/E89A/D105A/D108A/E130A (Homo sapiens, UniProt Q401N2, A152T/D129A/D132A/E113A/E154A/E48A); experiment: TEVC in oocytes, Cluster 3 quintuple mutant; details: H^+ pH 4.0; Zn^2+ 10 mM; data not shown
T9 construct: expressed in transfected cells; host or cells: Xenopus oocytes injected with cRNA (pUNIV vector)
T9 sequence (Q401N2 26-412 E48A/E113A/D129A/D132A/A152T/E154A): as the sequence (Q401N2 26-412 E113A/D129A/A152T) above, with E23A, D107A, E129A counted along it
Procedure: as §1, §2, §3

T1 sequence (Q401N2 26-412 A152T/H168A): as the sequence (Q401N2 26-412 E113A/D129A/A152T) above, with A88E, A104D, H143A counted along it

## [Cl-].[Cl-].[Zn+2] [Zn^2+, ZnCl2]
ZAC^H144A
  functional properties as agonist compared to WT ZAC: not altered significantly
m5-HT3A/ZAC; 10 mM Zn^2+, n = 4
  I10 mM Zn2+ ± S.E.M.: 0.0037 ± 0.0013 μA
m5-HT3A/ZAC; 5-HT 1 μM
  modulation of 5-HT (EC80)-evoked currents: monophasic concentration-inhibition relationship
ZAC^E89A/D105A
  concentration-response relationship compared to WT ZAC: very similar to that at WT ZAC
ZAC^H82A
  agonist properties compared to WT ZAC: WT-like agonist properties
ZAC^D116A/DH8A/H210A
  I10 mM Zn2+ range: 10–30 nA
ZAC^D108A
  concentration-response relationship compared to WT ZAC: did not differ significantly
ZAC^H139A
  functional properties as agonist compared to WT ZAC: not altered significantly
ZAC^E130A
  concentration-response relationship compared to WT ZAC: did not differ significantly
[1]
  agonist responsiveness: non-responsive
